These results are taken from patent US8389539B2, “Azacyclic derivatives” (Hoffman-La Roche Inc., priority 2009, dated 2013).

This experiment concerns the target T1, human HSL (Homo sapiens, UniProt Q05469).
T1 construct: overlapping PCR to generate a full length human HSL ORF with a 3′-His6 tag; His6 (C); made in house; host or cells: High 5 insect cells (baculovirus, pFast-BAC)
T1 sequence (Q05469 1-1076): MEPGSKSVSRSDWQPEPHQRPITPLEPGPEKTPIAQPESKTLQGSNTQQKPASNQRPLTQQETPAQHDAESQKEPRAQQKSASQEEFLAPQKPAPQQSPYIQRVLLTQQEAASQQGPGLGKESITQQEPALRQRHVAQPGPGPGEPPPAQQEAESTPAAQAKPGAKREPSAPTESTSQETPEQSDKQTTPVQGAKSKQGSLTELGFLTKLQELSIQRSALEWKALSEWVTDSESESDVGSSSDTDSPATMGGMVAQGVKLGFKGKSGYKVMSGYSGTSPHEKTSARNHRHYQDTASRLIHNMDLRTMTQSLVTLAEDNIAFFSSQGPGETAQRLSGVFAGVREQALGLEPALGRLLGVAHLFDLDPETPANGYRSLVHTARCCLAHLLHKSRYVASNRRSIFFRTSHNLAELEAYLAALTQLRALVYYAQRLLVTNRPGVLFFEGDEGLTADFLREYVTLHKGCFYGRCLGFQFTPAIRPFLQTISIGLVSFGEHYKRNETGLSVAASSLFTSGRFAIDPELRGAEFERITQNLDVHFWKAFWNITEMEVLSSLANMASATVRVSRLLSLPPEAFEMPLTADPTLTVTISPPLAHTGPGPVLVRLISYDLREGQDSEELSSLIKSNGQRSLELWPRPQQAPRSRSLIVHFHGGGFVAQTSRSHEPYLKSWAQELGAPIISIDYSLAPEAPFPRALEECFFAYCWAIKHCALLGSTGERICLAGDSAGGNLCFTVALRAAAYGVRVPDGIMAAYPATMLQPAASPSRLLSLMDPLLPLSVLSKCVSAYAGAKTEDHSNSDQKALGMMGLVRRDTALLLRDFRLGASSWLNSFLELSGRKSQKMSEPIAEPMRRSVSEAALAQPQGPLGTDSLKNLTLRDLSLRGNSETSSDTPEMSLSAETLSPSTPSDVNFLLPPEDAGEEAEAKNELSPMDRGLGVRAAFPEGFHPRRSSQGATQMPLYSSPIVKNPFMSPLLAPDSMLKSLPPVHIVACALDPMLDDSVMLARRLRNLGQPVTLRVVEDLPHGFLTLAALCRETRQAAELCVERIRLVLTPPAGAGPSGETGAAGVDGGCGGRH
As to the kind of experiment: Human Hormone-Sensitive Lipase (HSL) enzyme inhibition assay (colorimetric, DMPT substrate). It counts as biochemical. The note with it: human full length HSL-His6, 2,3-dimercapto-1-propanol tributyrate substrate, 37° C. 20 minutes, absorbance at 405 nm; read-out: HSL hum IC50. How it is done:
1) Cloning: cDNA was prepared from commercial human brain polyA+ RNA and used as a template in overlapping PCR to generate a full length human HSL ORF with a 3′-His6 tag. This full length insert was cloned into the pFast-BAC vector and the DNA-sequence of several single clones was verified. DNA from a correct full length clone with the 3′His6 tag was used to transform the E. coli strain DH10BAC. Resulting bacmid DNA was used to generate a titered baculovirus stock for protein generation.
Cells were thawed. […] was done at 3×30 sec., Lubrol PX was added to 0.2% final concentration followed by stirring for 15 min. at 4° C. and centrifugation at 25 k×g, 60 min., 4° C. […] Supernatant was removed, the resin washed in the centrifuge vessel using 5 volumes of Base Buffer containing 0.2% Lubrol PX. Centrifugation was done again, then the supernatant discarded. The resin was poured onto a 0.8 μm membrane in a disposable filter unit (Nalge 450-0080), and washed with 5 volumes of Base Buffer containing 0.2% Lubrol PX. It was then washed with 30 volumes of Base Buffer containing 60 mM imidazole pH 7.5 at 4° C. The protein was eluated with 5 volumes of 25 mM Tris-Cl, 300 mM NaCl, 200 mM imidazole, 10 mM 2-mercaptoethanol, pH 7.5 at 4° C. by tumbling resin with buffer end-over-end, 30 min., 4° C. The resin was captured on a 0.2 μm membrane disposable filter unit (Millipore SCGP U02 RE) and the eluate collected in the reservoir. The eluate was concentrated using a 30 k MWCO centrifugal filter device (Sartorius Vivascience Vivacell 100, VC1022), to 20 ml. It was then dialyzed overnight at 4° C., two times against 2 L of 10% glycerol, 25 mM Tris-Cl, 300 mM NaCl, 0.2 mM EDTA, 0.2 mM DTT, pH 7.5 at 4° C. The protein was filtered using a 0.22 μm disposable filter unit (Millipore SCGP00525). The protein concentration was calculated from absorbance at 280 nm, using 280=0.67 cm-1 mg-1. […] The protein was stored at −80° C.
Human Hormone-Sensitive Lipase (HSL) Enzyme Inhibition Assay:
HSL enzyme activity was measured by a colorimetric assay using 2,3-dimercapto-1-propanol tributyrate (Aldrich, St. Louis, Mo.) as a substrate. Typically, 1.5 mM 2,3-dimercapto-1-propanol tributyrate (DMPT) in 100 mM MOPS, pH 7.2, 0.2 mg/ml fatty acid-free BSA was prepared by sonication at 4° C. to homogenous suspension. Test compounds (2 mM stock in DMSO) were diluted 3 fold in series in DMSO. Compound solutions were diluted 24 fold in 1.5 mM DMPT containing solution and 18 ul per well was added to 384-well microplates (Corning Costar). Twelve microliters per well of human HSL (15 ug/ml) was added and the reaction mixture was incubated at 37° C. for 20 minutes. Six microliters of 12 mM dithio-bis-(2-nitrobenzoic acid) (DTNB) in DMSO plus 1.2% SDS and 0.6% Triton X-100 were added and the mixture was incubated at room temperature for 15 minutes. Product production was monitored by reading absorbance at 405 nm on an Envision Reader (PerkinElmer Life and Analytical Sciences, Shelton, Conn.).
Turning to `O=C1N(c2ccc(C3CC3)cc2)CCC12CCN(CCCc1ccccc1)CC2` [Example 1, 2-(4-Cyclopropyl-phenyl)-8-(3-phenyl-propyl)-2,8-diaza-spiro[4.5]decan-1-one], the IC50 turned out to be 0.24 µM.

Consider `O=C1N(c2ccc(C3CC3)cc2)CCC12CCN(CCc1ccccc1)CC2` [Example 2, 2-(4-Cyclopropyl-phenyl)-8-phenethyl-2,8-diaza-spiro[4.5]decan-1-one], for which the IC50 is 0.07 µM.

On to `O=C1N(c2ccc(C3CC3)cc2)CCC12CCN(Cc1ccc(C(F)(F)F)cc1)CC2` [Example 3, 2-(4-Cyclopropyl-phenyl)-8-(4-trifluoromethyl-benzyl)-2,8-diaza-spiro[4.5]decan-1-one], for which the concentration for half-maximal inhibition (IC50) was determined as 0.36 µM.

For the molecule `CC(c1ccccc1)N1CCC2(CCN(c3ccc(C4CC4)cc3)C2=O)CC1` (centres unmarked) [Example 4, 2-(4-Cyclopropyl-phenyl)-8-(1-phenyl-ethyl)-2,8-diaza-spiro[4.5]decan-1-one], the 50% inhibitory concentration (IC50) came out at 0.03 µM.

For the molecule `CC(c1cccc(C(F)(F)F)c1)N1CCC2(CCN(c3ccc(C4CC4)cc3)C2=O)CC1` (centres unmarked) [Example 5, 2-(4-Cyclopropyl-phenyl)-8-[1-(3-trifluoromethyl-phenyl)-ethyl]-2,8-diaza-spiro[4.5]decan-1-one], the IC50 came out at 0.17 µM.

`CC(c1ccccc1)N1CCC2(CCN(c3ccc(C4CC4)cc3Cl)C2=O)CC1` (centres unmarked) [Example 6, 2-(2-Chloro-4-cyclopropyl-phenyl)-8-(1-phenyl-ethyl)-2,8-diaza-spiro[4.5]decan-1-one]: the IC50 was determined as 0.98 µM.

For `CCC(c1ccccc1)N1CCC2(CCN(c3ccc(C4CC4)cc3)C2=O)CC1` (centres unmarked) [Example 7, 2-(4-Cyclopropyl-phenyl)-8-(1-phenyl-propyl)-2,8-diaza-spiro[4.5]decan-1-one], the IC50 amounted to 0.03 µM.

`O=C1N(c2ccc(OC(F)(F)F)cc2)CCC12CCN(Cc1ccccc1)CC2` [Example 8, 8-Benzyl-2-(4-trifluoromethoxy-phenyl)-2,8-diaza-spiro[4.5]decan-1-one]: the IC50 amounted to 0.04 µM.

As for `CCNC(=O)CN1CCC2(CC1)CCN(c1ccc(C3CC3)cc1)C2=O` [Example 9, 2-[2-(4-Cyclopropyl-phenyl)-1-oxo-2,8-diaza-spiro[4.5]dec-8-yl]-N-ethyl-acetamide], the IC50 is 0.61 µM.

In the case of `CCN(CC)C(=O)CN1CCC2(CC1)CCN(c1ccc(C3CC3)cc1)C2=O` [Example 10, 2-[2-(4-Cyclopropyl-phenyl)-1-oxo-2,8-diaza-spiro[4.5]dec-8-yl]-N,N-diethyl-acetamide], the IC50 was 0.38 µM.

Consider `CCCCNC(=O)CN1CCC2(CC1)CCN(c1ccc(C3CC3)cc1)C2=O` [Example 11, N-Butyl-2-[2-(4-cyclopropyl-phenyl)-1-oxo-2,8-diaza-spiro[4.5]dec-8-yl]-acetamide], for which the IC50 stood at 0.09 µM.

Consider `O=C(CN1CCC2(CC1)CCN(c1ccc(C3CC3)cc1)C2=O)NCc1ccc(C(F)(F)F)cc1` [Example 12, 2-[2-(4-Cyclopropyl-phenyl)-1-oxo-2,8-diaza-spiro[4.5]dec-8-yl]-N-(4-trifluoromethyl-benzyl)-acetamide], for which the IC50 came out at 0.03 µM.

On to `O=C(CN1CCC2(CC1)CCN(c1ccc(C3CC3)cc1)C2=O)Nc1ccc(F)cc1` [Example 13, 2-[2-(4-Cyclopropyl-phenyl)-1-oxo-2,8-diaza-spiro[4.5]dec-8-yl]-N-(4-fluoro-phenyl)-acetamide], for which the IC50 was found to be 0.08 µM.

For the molecule `O=C(CN1CCC2(CC1)CCN(c1ccc(C3CC3)cc1)C2=O)N1CCCC1` [Example 14, 2-(4-Cyclopropyl-phenyl)-8-(2-oxo-2-pyrrolidin-1-yl-ethyl)-2,8-diaza-spiro[4.5]decan-1-one], the IC50 was found to be 0.22 µM.

For the molecule `CN(Cc1ccccc1)C(=O)CN1CCC2(CC1)CCN(c1ccc(C3CC3)cc1)C2=O` [Example 15, N-Benzyl-2-[2-(4-cyclopropyl-phenyl)-1-oxo-2,8-diaza-spiro[4.5]dec-8-yl]-N-methyl-acetamide], the IC50 came to 0.08 µM.

With `CN(C(=O)CN1CCC2(CC1)CCN(c1ccc(C3CC3)cc1)C2=O)C1CCCCC1` [Example 16, N-Cyclohexyl-2-[2-(4-cyclopropyl-phenyl)-1-oxo-2,8-diaza-spiro[4.5]dec-8-yl]-N-methyl-acetamide], the IC50 is 0.06 µM.

Consider `COCCCNC(=O)CN1CCC2(CC1)CCN(c1ccc(C3CC3)cc1)C2=O` [Example 17, 2-[2-(4-Cyclopropyl-phenyl)-1-oxo-2,8-diaza-spiro[4.5]dec-8-yl]-N-(3-methoxy-propyl)-acetamide], for which the IC50 was determined as 0.71 µM.

On to `CCCCNC(=O)CCN1CCC2(CC1)CCN(c1ccc(C3CC3)cc1)C2=O` [Example 18, N-Butyl-3-[2-(4-cyclopropyl-phenyl)-1-oxo-2,8-diaza-spiro[4.5]dec-8-yl]-propionamide], for which the IC50 was determined as 0.46 µM.

For `O=C(CCN1CCC2(CC1)CCN(c1ccc(C3CC3)cc1)C2=O)NCc1ccc(C(F)(F)F)cc1` [Example 19, 3-[2-(4-Cyclopropyl-phenyl)-1-oxo-2,8-diaza-spiro[4.5]dec-8-yl]-N-(4-trifluoromethyl-benzyl)-propionamide], the IC50 is 0.03 µM.

Turning to `O=C(CCN1CCC2(CC1)CCN(c1ccc(C3CC3)cc1)C2=O)Nc1ccc(F)cc1` [Example 20, 3-[2-(4-Cyclopropyl-phenyl)-1-oxo-2,8-diaza-spiro[4.5]dec-8-yl]-N-(4-fluoro-phenyl)-propionamide], the IC50 worked out at 0.06 µM.

For the molecule `CN(Cc1ccccc1)C(=O)CCN1CCC2(CC1)CCN(c1ccc(C3CC3)cc1)C2=O` [Example 21, N-Benzyl-3-[2-(4-cyclopropyl-phenyl)-1-oxo-2,8-diaza-spiro[4.5]dec-8-yl]-N-methyl-propionamide], the IC50 turned out to be 0.09 µM.

`CN(C(=O)CCN1CCC2(CC1)CCN(c1ccc(C3CC3)cc1)C2=O)C1CCCCC1` [Example 22, N-Cyclohexyl-3-[2-(4-cyclopropyl-phenyl)-1-oxo-2,8-diaza-spiro[4.5]dec-8-yl]-N-methyl-propionamide]: the IC50 turned out to be 0.32 µM.

`O=C1N(c2ccc(C3CC3)cc2)CCC12CCN(CC(O)c1ccccc1)CC2` (centres unmarked) [Example 23, 2-(4-Cyclopropyl-phenyl)-8-(2-hydroxy-2-phenyl-ethyl)-2,8-diaza-spiro[4.5]decan-1-one]: the IC50 was determined as 0.07 µM.
